Literature values as cited in US20100112105A1, “Antimicrobial efficacy of aframomum Melegueta extract against propionibacterium acnes” (ACCESS BUSINESS GROUP INTERNATIONAL LLC, priority 2008, published 2010).

Test system: Mycobacterium chelonei, M. intracellulare, M. smegmatis, and M. xenopi
Settings: Galal, Pharmaceutical Biology 1996

| Compound | activity against mycobacteria |
| --- | --- |
| CCCCC/C=C/C(=O)CCc1ccc(O)c(OC)c1 [6-shogaol] | active |
| CCCCCCCC(=O)CCc1ccc(O)c(OC)c1 [6-paradol] | active |
| COc1cc(CCC(C)=O)ccc1O [gingerone] | inactive |
